In patent US8940742B2, “Heterocyclic compounds and uses thereof” (Infinity Pharmaceuticals, Inc., priority 2012, dated 2015):

Legend:
Raw264.7 p110 γ = molecular target: T1, Raw264.7 p110 γ (Mus musculus, UniProt Q9JHG7); test: Raw264.7 p110 γ cellular assay (phospho-AKT); assay type: cell-based; conditions: serum-starved RAW264.7 cells stimulated with C5a
T1 construct: reduction of phospho-AKT in stimulated RAW 264.7 cells; endogenous in cells; host or cells: RAW264.7 macrophages
Text: (b) PI3K-γ Selective Assay
Briefly, serum-starved PAW264.7 cells are stimulated with a known GPCR agonist C5a. […] Cells can be treated with test compounds prior to, simultaneously with, or subsequent to the stimulation by C5a. RAW 264.7 cells respond to the complement component fragment C5a through activation of the C5a receptor, and the C5a receptor activates macrophages and induces cell migration.

PI3K β = molecular target: T2, PI3K β (Homo sapiens, UniProt P42338); test: PI3-Kinase Promega ADP-Glo Max assay; assay type: biochemical; conditions: 40 nM kinase, 3 mM ATP, 500 uM diC8-PtdInsP
T2 construct: purchased Millipore
How it was run: (§1)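 Human class I PI3K (20 nM α or δ, 40 nM β) pre-incubated 15 min with compound in HEPES pH 7.4 buffer with MgCl2, then reacted 2 h at room temperature with 3 mM ATP and 500 uM diC8-PtdInsP. ADP measured by ADP-Glo Max luminescence; % inhibition fitted to 4-parameter logistic for IC50.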

PI3K α = molecular target: T3, PI3K α (Homo sapiens, UniProt P42336); test: PI3-Kinase Promega ADP-Glo Max assay; assay type: biochemical; conditions: 20 nM kinase, 3 mM ATP, 500 uM diC8-PtdInsP
T3 construct: purchased Millipore
How it was run: as §1

PI3K δ = molecular target: T4, PI3K δ (Homo sapiens, UniProt O00329); test: PI3-Kinase Promega ADP-Glo Max assay; assay type: biochemical; conditions: 20 nM kinase, 3 mM ATP, 500 uM diC8-PtdInsP
T4 construct: purchased Millipore
How it was run: as §1

RAJI p110 δ = RAJI p110 δ (Homo sapiens, UniProt O00329); test: RAJI p110 δ cellular assay (phospho-AKT);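 further: potency based on lowered phosphorylated AKT in RAJI cells, as a readout of PI3K-δ dependent B-cell receptor signaling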
Text: (a) PI3K-δ Selective Assay
Reduction of phospho-AKT is indicative of compounds that may inhibit B-cell proliferation and function in certain diseases.

PI3K γ = molecular target: T5, PI3K γ (Homo sapiens, UniProt P48736); test: PI3-Kinase Promega ADP-Glo Max assay; assay type: biochemical; conditions: 40 nM kinase, 3 mM ATP, 500 uM diC8-PtdInsP
T5 construct: purchased Millipore
How it was run: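 Human class I PI3K reactions ran 2 hours at room temperature, followed by stop solution (40 min) and detection mix (1 hour) before luminescence reading.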

T2 sequence (P42338 whole entry): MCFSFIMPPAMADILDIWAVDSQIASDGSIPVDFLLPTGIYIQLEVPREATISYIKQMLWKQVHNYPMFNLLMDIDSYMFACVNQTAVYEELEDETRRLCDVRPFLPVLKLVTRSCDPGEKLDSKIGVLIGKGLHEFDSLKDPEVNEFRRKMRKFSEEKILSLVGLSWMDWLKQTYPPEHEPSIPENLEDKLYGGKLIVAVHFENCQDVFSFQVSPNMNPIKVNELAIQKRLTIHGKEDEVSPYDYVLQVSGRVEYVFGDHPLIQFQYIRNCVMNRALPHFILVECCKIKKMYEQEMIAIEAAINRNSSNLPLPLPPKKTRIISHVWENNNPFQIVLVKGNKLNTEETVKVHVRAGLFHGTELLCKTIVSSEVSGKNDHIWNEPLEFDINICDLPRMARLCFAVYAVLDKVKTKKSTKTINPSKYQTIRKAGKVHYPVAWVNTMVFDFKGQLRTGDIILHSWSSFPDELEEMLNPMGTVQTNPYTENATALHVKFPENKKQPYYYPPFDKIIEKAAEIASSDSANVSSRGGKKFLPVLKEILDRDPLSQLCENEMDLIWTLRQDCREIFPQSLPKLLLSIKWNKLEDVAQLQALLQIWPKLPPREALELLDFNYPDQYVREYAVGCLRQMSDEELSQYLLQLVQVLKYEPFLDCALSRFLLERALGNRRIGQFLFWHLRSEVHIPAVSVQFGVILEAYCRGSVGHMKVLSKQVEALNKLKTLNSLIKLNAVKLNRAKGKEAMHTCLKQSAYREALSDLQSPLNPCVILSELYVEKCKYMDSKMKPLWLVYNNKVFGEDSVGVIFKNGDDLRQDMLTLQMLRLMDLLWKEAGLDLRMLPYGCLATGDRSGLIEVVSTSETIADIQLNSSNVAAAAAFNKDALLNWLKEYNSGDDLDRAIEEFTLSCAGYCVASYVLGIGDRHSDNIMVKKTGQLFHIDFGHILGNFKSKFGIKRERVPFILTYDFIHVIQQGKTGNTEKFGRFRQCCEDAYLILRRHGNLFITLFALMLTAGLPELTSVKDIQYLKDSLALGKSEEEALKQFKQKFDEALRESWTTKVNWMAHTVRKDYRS
T2 sequence (P27986 whole entry partner): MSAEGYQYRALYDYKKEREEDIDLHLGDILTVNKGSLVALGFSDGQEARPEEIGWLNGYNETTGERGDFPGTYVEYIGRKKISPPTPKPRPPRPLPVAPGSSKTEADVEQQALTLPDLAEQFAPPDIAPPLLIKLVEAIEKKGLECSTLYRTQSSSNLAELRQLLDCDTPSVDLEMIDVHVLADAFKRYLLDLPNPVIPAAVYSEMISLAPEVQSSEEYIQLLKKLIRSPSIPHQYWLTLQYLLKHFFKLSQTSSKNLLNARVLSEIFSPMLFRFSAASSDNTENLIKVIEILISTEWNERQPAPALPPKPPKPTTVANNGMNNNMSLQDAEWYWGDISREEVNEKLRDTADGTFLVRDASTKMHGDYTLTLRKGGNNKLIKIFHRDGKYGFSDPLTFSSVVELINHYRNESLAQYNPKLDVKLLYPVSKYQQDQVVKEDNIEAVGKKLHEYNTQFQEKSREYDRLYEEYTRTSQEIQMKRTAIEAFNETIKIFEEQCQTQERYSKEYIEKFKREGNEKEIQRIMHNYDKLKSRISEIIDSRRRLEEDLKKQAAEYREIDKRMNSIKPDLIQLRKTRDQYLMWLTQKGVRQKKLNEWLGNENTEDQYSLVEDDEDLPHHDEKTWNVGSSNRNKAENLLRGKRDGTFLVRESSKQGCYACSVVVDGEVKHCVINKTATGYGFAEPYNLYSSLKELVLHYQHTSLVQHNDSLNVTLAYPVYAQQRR
T4 sequence (O00329 whole entry): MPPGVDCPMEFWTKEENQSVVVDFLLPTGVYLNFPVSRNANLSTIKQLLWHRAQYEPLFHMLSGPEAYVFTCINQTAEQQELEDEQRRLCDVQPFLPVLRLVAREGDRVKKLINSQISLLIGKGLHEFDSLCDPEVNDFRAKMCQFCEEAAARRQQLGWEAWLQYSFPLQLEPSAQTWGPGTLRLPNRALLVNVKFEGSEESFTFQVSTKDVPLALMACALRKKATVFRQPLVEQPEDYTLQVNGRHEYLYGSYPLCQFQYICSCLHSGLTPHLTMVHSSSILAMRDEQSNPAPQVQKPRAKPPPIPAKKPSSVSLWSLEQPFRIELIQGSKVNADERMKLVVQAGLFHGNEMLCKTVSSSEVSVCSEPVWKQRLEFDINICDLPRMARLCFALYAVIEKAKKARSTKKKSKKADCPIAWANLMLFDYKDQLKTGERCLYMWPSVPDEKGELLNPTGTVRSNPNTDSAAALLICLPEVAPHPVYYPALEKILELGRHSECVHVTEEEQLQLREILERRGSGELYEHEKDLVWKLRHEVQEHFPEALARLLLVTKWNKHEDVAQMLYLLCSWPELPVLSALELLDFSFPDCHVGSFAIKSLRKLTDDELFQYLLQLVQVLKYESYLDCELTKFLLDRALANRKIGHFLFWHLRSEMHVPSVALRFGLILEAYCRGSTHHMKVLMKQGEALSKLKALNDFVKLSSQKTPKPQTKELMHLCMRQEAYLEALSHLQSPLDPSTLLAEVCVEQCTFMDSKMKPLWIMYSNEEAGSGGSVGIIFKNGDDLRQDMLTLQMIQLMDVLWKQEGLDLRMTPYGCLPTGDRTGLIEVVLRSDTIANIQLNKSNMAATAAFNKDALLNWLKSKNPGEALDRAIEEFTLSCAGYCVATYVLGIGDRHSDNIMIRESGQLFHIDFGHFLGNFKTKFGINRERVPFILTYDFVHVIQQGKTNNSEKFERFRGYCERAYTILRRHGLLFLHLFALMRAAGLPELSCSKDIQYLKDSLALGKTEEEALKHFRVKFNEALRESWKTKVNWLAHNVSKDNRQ
T4 sequence (P27986 whole entry partner): as the sequence (P27986 whole entry partner) above
RAJI p110 δ, sequence (O00329 whole entry): as the sequence (O00329 whole entry) above
RAJI p110 δ, sequence (P27986 whole entry partner): as the sequence (P27986 whole entry partner) above
T5 sequence (P48736 whole entry): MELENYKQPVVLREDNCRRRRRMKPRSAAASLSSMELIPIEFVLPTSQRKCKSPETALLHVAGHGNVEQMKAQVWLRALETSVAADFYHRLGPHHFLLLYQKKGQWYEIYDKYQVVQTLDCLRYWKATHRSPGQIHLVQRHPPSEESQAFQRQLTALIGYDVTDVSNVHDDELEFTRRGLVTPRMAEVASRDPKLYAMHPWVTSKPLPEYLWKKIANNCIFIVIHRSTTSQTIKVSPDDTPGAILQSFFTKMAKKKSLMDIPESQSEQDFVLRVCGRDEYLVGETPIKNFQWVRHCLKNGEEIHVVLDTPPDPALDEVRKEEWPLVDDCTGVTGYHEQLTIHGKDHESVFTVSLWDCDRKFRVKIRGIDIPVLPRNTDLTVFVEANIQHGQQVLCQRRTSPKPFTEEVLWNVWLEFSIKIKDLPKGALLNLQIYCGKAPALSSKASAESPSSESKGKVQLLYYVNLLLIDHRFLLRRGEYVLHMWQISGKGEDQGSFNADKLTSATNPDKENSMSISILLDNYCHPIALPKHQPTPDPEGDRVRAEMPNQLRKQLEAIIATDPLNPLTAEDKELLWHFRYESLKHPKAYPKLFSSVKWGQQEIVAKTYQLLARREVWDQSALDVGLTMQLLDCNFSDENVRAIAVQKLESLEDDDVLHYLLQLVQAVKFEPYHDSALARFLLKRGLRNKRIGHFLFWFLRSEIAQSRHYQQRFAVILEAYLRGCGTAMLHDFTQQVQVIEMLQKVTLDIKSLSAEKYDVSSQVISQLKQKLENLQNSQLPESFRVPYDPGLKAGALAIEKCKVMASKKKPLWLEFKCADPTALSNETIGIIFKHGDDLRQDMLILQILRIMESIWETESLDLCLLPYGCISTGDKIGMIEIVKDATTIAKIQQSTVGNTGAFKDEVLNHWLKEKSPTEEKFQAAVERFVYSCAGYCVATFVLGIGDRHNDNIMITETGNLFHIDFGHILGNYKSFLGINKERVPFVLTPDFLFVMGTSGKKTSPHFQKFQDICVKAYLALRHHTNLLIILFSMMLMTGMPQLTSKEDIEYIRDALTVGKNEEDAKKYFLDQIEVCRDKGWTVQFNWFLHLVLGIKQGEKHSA

| IC50 (Raw264.7 p110 γ) | IC50 (PI3K β) | IC50 (PI3K α) | IC50 (PI3K δ) | IC50 (RAJI p110 δ) | IC50 (PI3K γ) | SMILES |
| --- | --- | --- | --- | --- | --- | --- |
| < 100 nM | 1000 to 10000 nM | 1000 to 10000 nM | 1000 to 10000 nM | < 100 nM | < 100 nM | CC#Cc1cccc2cc([C@H](C)NC(=O)c3c(N)nn4cccnc34)n(-c3ccccc3)c(=O)c12 [Compound 167] |
| 100 to 1000 nM | 1000 to 10000 nM | > 10000 nM | 1000 to 10000 nM | 100 to 1000 nM | 1000 to 10000 nM | C[C@H](NC(=O)c1c(N)nn2cccnc12)c1cc2sccc2c(=O)n1-c1ccccc1 [Compound 225] |
| 100 to 1000 nM | 1000 to 10000 nM | 1000 to 10000 nM | 1000 to 10000 nM | 100 to 1000 nM | 100 to 1000 nM | C[C@H](NC(=O)c1c(N)nn2cccnc12)c1cc2cccc(C#CCN)c2c(=O)n1-c1ccccc1 [Compound 153] |
| < 100 nM | 1000 to 10000 nM | 100 to 1000 nM | 1000 to 10000 nM | < 100 nM | < 100 nM | C[C@H](NC(=O)c1c(N)nn2cccnc12)c1cc2cccc(C#CCNC(=O)C3CCC(=O)C3)c2c(=O)n1-c1ccccc1 (stereo partly drawn) [Compound 162] |
| < 100 nM | 100 to 1000 nM | 100 to 1000 nM | 100 to 1000 nM | < 100 nM | < 100 nM | C#Cc1cccc2cc([C@H](C)NC(=O)c3c(N)nn4cccnc34)n(-c3ccccc3)c(=O)c12 [Compound 276] |
| < 100 nM | > 10000 nM | 1000 to 10000 nM | 1000 to 10000 nM | < 100 nM | 100 to 1000 nM | CC(=O)Nc1ccc(-c2cccc3cc([C@H](C)NC(=O)c4c(N)nn5cccnc45)n(-c4ccccc4)c(=O)c23)cc1 [Compound 203] |
| < 100 nM | < 100 nM | 1000 to 10000 nM | 100 to 1000 nM | < 100 nM | 100 to 1000 nM | Cc1ccn2nc(N)c(C(=O)N[C@@H](C)c3cc4cccc(Cl)c4c(=O)n3-c3ccccc3)c2n1 [Compound 142] |
| < 100 nM | 100 to 1000 nM | 1000 to 10000 nM | 100 to 1000 nM | < 100 nM | < 100 nM | C[C@H](NC(=O)c1c(N)nn2cccnc12)c1cc2scc(Cl)c2c(=O)n1-c1ccccc1 [Compound 212] |
| < 100 nM | 100 to 1000 nM | 1000 to 10000 nM | 1000 to 10000 nM | < 100 nM | 100 to 1000 nM | Cc1cc(C)n2nc(N)c(C(=O)N[C@@H](C)c3cc4cccc(Cl)c4c(=O)n3-c3ccccc3)c2n1 [Compound 152] |
| 1000 to 10000 nM | > 10000 nM | > 10000 nM | 100 to 1000 nM | < 100 nM | 1000 to 10000 nM | C[C@H](NC(=O)c1nccnc1N)c1cc2cccc(-c3cc[nH]n3)c2c(=O)n1-c1ccccc1 [Compound 59] |

Further lines, the compound ahead of its results:

| SMILES | IC50 (Raw264.7 p110 γ) | IC50 (PI3K β) | IC50 (PI3K α) | IC50 (PI3K δ) | IC50 (RAJI p110 δ) | IC50 (PI3K γ) |
| --- | --- | --- | --- | --- | --- | --- |
| C[C@H](NC(=O)c1c(N)nn2cccnc12)c1cc2cccc(C=O)c2c(=O)n1-c1ccccc1 [Compound 201] | < 100 nM | 1000 to 10000 nM | > 10000 nM | 1000 to 10000 nM | 100 to 1000 nM | 1000 to 10000 nM |
| C[C@H](NC(=O)c1c(N)nn2cccnc12)c1cc2cccc(O)c2c(=O)n1-c1ccccc1 [Compound 132] | < 100 nM | 1000 to 10000 nM | > 10000 nM | > 10000 nM | 100 to 1000 nM | 1000 to 10000 nM |
| COc1cc(-c2cccc3cc([C@H](C)NC(=O)c4ncc(C)nc4N)n(-c4ccccc4)c(=O)c23)ccn1 [Compound 139] | < 100 nM | > 10000 nM | > 10000 nM | 1000 to 10000 nM | 100 to 1000 nM | 1000 to 10000 nM |
| C[C@H](NC(=O)c1nc(-c2cccc(S(=O)(=O)NC(C)(C)C)c2)cnc1N)c1cc2cccc(Cl)c2c(=O)n1-c1ccccc1 [Compound 86] | < 100 nM | 1000 to 10000 nM | 1000 to 10000 nM | 1000 to 10000 nM | < 100 nM | 100 to 1000 nM |
| C[C@H](NC(=O)c1c(N)nn2cccnc12)c1cc2cccc(C#CCNC(=O)C3CC(=O)CC(=O)C3)c2c(=O)n1-c1ccccc1 [Compound 156] | 100 to 1000 nM | 1000 to 10000 nM | 1000 to 10000 nM | 100 to 1000 nM | 1000 to 10000 nM | < 100 nM |
| C[C@H](NC(=O)c1c(N)nn2cccnc12)c1cc2scc(-c3cnn(C)c3)c2c(=O)n1-c1ccccc1 [Compound 209] | 100 to 1000 nM | > 10000 nM | > 10000 nM | > 10000 nM | 1000 to 10000 nM | 1000 to 10000 nM |
| C[C@H](NC(=O)c1c(N)nn2cccnc12)c1cc2cccc(N(C)C)c2c(=O)n1-c1ccccc1 [Compound 180] | 100 to 1000 nM | > 10000 nM | > 10000 nM | > 10000 nM | 1000 to 10000 nM | 1000 to 10000 nM |
| C[C@H](NC(=O)c1c(N)nn2cccnc12)c1cc2ccsc2c(=O)n1-c1ccccc1 [Compound 198] | 100 to 1000 nM | 1000 to 10000 nM | > 10000 nM | 1000 to 10000 nM | 100 to 1000 nM | 1000 to 10000 nM |
| C[C@H](NC(=O)c1c(N)nn2cccnc12)c1cc2cccc(C#CCCN)c2c(=O)n1-c1ccccc1 [Compound 154] | 100 to 1000 nM | 1000 to 10000 nM | 1000 to 10000 nM | 1000 to 10000 nM | 100 to 1000 nM | 100 to 1000 nM |
| C[C@H](NC(=O)c1c(N)nn2cccnc12)c1cc2cccc(-c3ccncc3)c2c(=O)n1-c1ccccc1 [Compound 117] | < 100 nM | > 10000 nM | 1000 to 10000 nM | 1000 to 10000 nM | < 100 nM | 100 to 1000 nM |
| C[C@H](NC(=O)c1nc(-c2cccc(NS(=O)(=O)N(C)C)c2)cnc1N)c1cc2cccc(Cl)c2c(=O)n1-c1ccccc1 [Compound 99] | < 100 nM | 100 to 1000 nM | 1000 to 10000 nM | 100 to 1000 nM | < 100 nM | < 100 nM |
| CNc1cccc2cc([C@H](C)NC(=O)c3c(N)nn4cccnc34)n(-c3ccccc3)c(=O)c12 [Compound 266] | < 100 nM | > 10000 nM | 1000 to 10000 nM | > 10000 nM | 100 to 1000 nM | 1000 to 10000 nM |
| COc1ccc(-c2cccc3cc([C@H](C)NC(=O)c4c(N)nn5cccnc45)n(-c4ccccc4)c(=O)c23)cn1 [Compound 223] | < 100 nM | > 10000 nM | > 10000 nM | 1000 to 10000 nM | < 100 nM | 100 to 1000 nM |
| C[C@H](NC(=O)c1c(N)nn2cccnc12)c1cc2cccc(C#N)c2c(=O)n1-c1ccccc1 [Compound 227] | < 100 nM | 1000 to 10000 nM | > 10000 nM | 1000 to 10000 nM | < 100 nM | 100 to 1000 nM |
| Cc1cnc(N)c(C(=O)N[C@@H](C)c2cc3cccc(Cl)c3c(=O)n2-c2ccccc2)n1 [Compound 89] | 100 to 1000 nM | 1000 to 10000 nM | > 10000 nM | 1000 to 10000 nM | 100 to 1000 nM | 1000 to 10000 nM |
